Assay results published in ChEMBL document CHEMBL4831518, “Structure-aided optimization of non-nucleoside M. tuberculosis thymidylate kinase inhibitors” (Eur J Med Chem, 2021).

Experiments:
Thymidylate kinase [1] = target: T1, Thymidylate kinase (Mycobacterium tuberculosis, UniProt P9WKE1); test: Inhibition of Mycobacterium tuberculosis H37Rv TMPK expressed in Escherichia coli by coupled enzyme based spectrophotometric analysis
T1 sequence (P9WKE1 whole entry): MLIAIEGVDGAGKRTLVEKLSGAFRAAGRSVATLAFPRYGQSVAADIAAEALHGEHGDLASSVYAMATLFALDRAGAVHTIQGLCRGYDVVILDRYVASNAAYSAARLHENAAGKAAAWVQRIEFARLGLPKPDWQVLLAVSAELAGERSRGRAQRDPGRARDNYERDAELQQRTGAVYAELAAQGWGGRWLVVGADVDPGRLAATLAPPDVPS

[2] = system: Mycobacterium tuberculosis; test: Antimycobacterial activity against Mycobacterium tuberculosis H37Rv ATCC 27294 assessed as inhibition of bacterial growth in presence of glucose by broth microdilution method; format: functional
MRC5 = test: Cytotoxicity against human MRC-5 cells assessed as reduction in cell growth measured after 3 days by resazurin dye based fluorometric analysis; conditions: MRC5, 72 h
[3] = system: Mycobacterium tuberculosis; test: Antibacterial activity againstMycobacterium tuberculosis H37Rv assessed as inhibition of bacterial growth in presence of efflux pump inhibitor PAbetaN and glucose […] by microdilution assay; format: functional
[4] = system: Mycobacterium tuberculosis; test: Antibacterial activity against Mycobacterium tuberculosis H37Rv assessed as inhibition of bacterial growth in presence of efflux pump inhibitor verapamil and glucose […] by microdilution assay; format: functional
Thymidylate kinase [5] = target: T2, Thymidylate kinase (Homo sapiens, UniProt P23919); test: Inhibition of human TMPK at 40 uM
T2 sequence (P23919 whole entry): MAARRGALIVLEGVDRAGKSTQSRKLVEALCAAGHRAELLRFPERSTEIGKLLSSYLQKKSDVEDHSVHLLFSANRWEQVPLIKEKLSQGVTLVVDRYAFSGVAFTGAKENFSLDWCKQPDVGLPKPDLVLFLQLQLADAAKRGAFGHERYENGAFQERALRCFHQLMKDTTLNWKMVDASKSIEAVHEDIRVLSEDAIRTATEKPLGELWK

Thymidylate kinase [6] = target: T2, Thymidylate kinase; test: Inhibition of human TMPK at 31 uM
[7] = Mycobacterium tuberculosis, H37Rv ATCC 27294, read-out: MIC
[8] = Mycobacterium tuberculosis, H37Rv, read-out: MIC

Row | Structure (SMILES) | IC50 (Thymidylate kinase [1]) [µM] | MIC [2, 7] [µM] | IC50 (MRC5) [µM] | further results
1 | Cc1cn(C2CCN(Cc3cccc(Oc4ccccc4)c3)CC2)c(=O)[nH]c1=O | 6.1 | – | – | –
2 | Cc1cn(C2CCN(Cc3cccc(Oc4cccc(F)c4)c3)CC2)c(=O)[nH]c1=O | 2.9 | 25 | > 64 | –
3 | Cc1cn(C2CCN(Cc3ccnc(Oc4ccccc4)c3)CC2)c(=O)[nH]c1=O | 10.2 | > 50 | > 64 | –
4 | Cc1cn(C2CCN(Cc3cccc(Oc4cccc(C(F)(F)F)c4)c3)CC2)c(=O)[nH]c1=O | 0.6 | 19 | 12.4 | –
5 | COc1cccc(Oc2cccc(CN3CCC(n4cc(C)c(=O)[nH]c4=O)CC3)c2)c1 | 1.2 | 25 | 25.3 | –
6 | Cc1cn(C2CCN(Cc3cccc(OC4CCCC4)c3)CC2)c(=O)[nH]c1=O | 32 | > 50 | 30.3 | –
7 | COc1ccc(Oc2cccc(CN3CCC(n4cc(C)c(=O)[nH]c4=O)CC3)c2)cc1 | 10.5 | – | 28 | MIC [2]: 31.25 µM; MIC [3]: 15.6 µg/mL; MIC [4, 8]: 15.6 µg/mL
8 | Cc1cn(C2CCN(Cc3cccc(Oc4cccnc4)c3)CC2)c(=O)[nH]c1=O | 27 | > 50 | > 64 | –
9 | Cc1cn(C2CCN(Cc3cccc(Oc4ccc(Cl)c(C(F)(F)F)c4)c3)CC2)c(=O)[nH]c1=O | 1.1 | 25 | 5.28 | inhibition (INH) (Thymidylate kinase [5]): Not Active
10 | Cc1cn(C2CCN(Cc3cccc(Oc4ccc(Cl)cc4)c3)CC2)c(=O)[nH]c1=O | 6.9 | 12.5 | 25.1 | –
11 | Cc1cn(C2CCN(Cc3cccc(Oc4cccc(Cl)c4)c3)CC2)c(=O)[nH]c1=O | 0.89 | 12.5 | 21 | –
12 | Cc1cn(C2CCN(Cc3cccc(Oc4cc(F)cc(F)c4)c3)CC2)c(=O)[nH]c1=O | 2.8 | > 50 | > 64 | –
13 | Cc1cn(C2CCN(Cc3cccc(Oc4ccncc4)c3)CC2)c(=O)[nH]c1=O | 20 | – | – | –
14 | Cc1cn(C2CCN(Cc3cc(Oc4ccccc4)ccn3)CC2)c(=O)[nH]c1=O | 8.7 | > 50 | > 64 | –
15 | Cc1cn(C2CCN(Cc3cccc(Oc4cc(C(F)(F)F)cc(C(F)(F)F)c4)c3)CC2)c(=O)[nH]c1=O | 0.14 | > 50 | – | –
16 | Cc1cn(C2CCN(Cc3cccc(Oc4cccc(Cl)c4)n3)CC2)c(=O)[nH]c1=O | 0.45 | 31 | > 64 | inhibition (INH) (Thymidylate kinase [5]): Not Active
17 | Cc1cn(C2CCN(Cc3cccc(Oc4ccc(Cl)c(Cl)c4)c3)CC2)c(=O)[nH]c1=O | 1.1 | 12.5 | 6.1 | inhibition (INH) (Thymidylate kinase [5]): Not Active
18 | Cc1ccc(Oc2cccc(CN3CCC(n4cc(C)c(=O)[nH]c4=O)CC3)c2)cc1 | 12 | 31.2 | > 64 | MIC [3]: 15.6 µg/mL; MIC [4, 8]: 15.6 µg/mL

Row | Structure (SMILES) | IC50 (Thymidylate kinase [1]) [µM] | MIC [2, 7] [µM] | IC50 (MRC5) [µM] | further results
19 | Cc1cn(C2CCN(Cc3cccc(Oc4ccc(F)c(F)c4)c3)CC2)c(=O)[nH]c1=O | 2.6 | 19 | > 64 | –
20 | Cc1cn(C2CCN(Cc3cccc(OC4CCCCC4)c3)CC2)c(=O)[nH]c1=O | 42 | 37 | 23.6 | –
21 | Cc1cn(C2CCN(Cc3cncc(Oc4cccc(OC(F)(F)F)c4)c3)CC2)c(=O)[nH]c1=O | 0.81 | 37 | > 64 | –
22 | Cc1cn(C2CCN(Cc3cc(Oc4cccc(Cl)c4)ccn3)CC2)c(=O)[nH]c1=O | 2.8 | > 50 | > 64 | –
23 | Cc1cn(C2CCN(Cc3cccc(Oc4cccc(OC(F)(F)F)c4)c3)CC2)c(=O)[nH]c1=O | 0.65 | 25 | 5.26 | inhibition (INH) (Thymidylate kinase [5]): Not Active
24 | Cc1cn(C2CCN(Cc3cncc(Oc4cc(Cl)cc(Cl)c4)c3)CC2)c(=O)[nH]c1=O | 0.22 | 43 | > 64 | inhibition (INH) (Thymidylate kinase [6]): Not Active
25 | Cc1cn(C2CCN(Cc3cccc(Oc4ccccc4)n3)CC2)c(=O)[nH]c1=O | – | > 50 | > 64 | MIC [3]: 62.5 µg/mL; MIC [4, 8]: 125 µg/mL
26 | Cc1cn(C2CCN(Cc3cccc(Oc4ccc(O)cc4)n3)CC2)c(=O)[nH]c1=O | 1.1 | > 50 | – | –
27 | Cc1cn(C2CCN(Cc3ccnc(Oc4cccc(Cl)c4)c3)CC2)c(=O)[nH]c1=O | 3.1 | 37 | > 64 | MIC [3]: 15.6 µg/mL; MIC [4]: 31.25 µg/mL
28 | Cc1cn(C2CCN(Cc3cccc(Oc4ccccc4C(=O)O)n3)CC2)c(=O)[nH]c1=O | 25 | > 50 | – | –
29 | Cc1cn(C2CCN(Cc3cncc(Oc4ccccc4)c3)CC2)c(=O)[nH]c1=O | 6.4 | 37 | > 64 | –
30 | Cc1cn(C2CCN(Cc3cccc(Oc4cccc(O)c4)c3)CC2)c(=O)[nH]c1=O | – | – | > 64 | –
31 | Cc1cn(C2CCN(Cc3cncc(Oc4cccc(Cl)c4)c3)CC2)c(=O)[nH]c1=O | 0.77 | 31 | > 64 | –
32 | Cc1cccc(Oc2cccc(CN3CCC(n4cc(C)c(=O)[nH]c4=O)CC3)c2)c1 | 26 | 37 | > 64 | –
33 | Cc1cn(C2CCN(Cc3cc(Oc4cc(Cl)cc(Cl)c4)ccn3)CC2)c(=O)[nH]c1=O | 0.6 | 34 | – | –
34 | Cc1cn(C2CCN(Cc3cccc(Oc4cc(Cl)cc(Cl)c4)c3)CC2)c(=O)[nH]c1=O | 0.12 | 12.5 | 6.73 | MIC [3]: 7.8 µg/mL; MIC [4, 8]: 7.8 µg/mL; inhibition (INH) (Thymidylate kinase [5]): Not Active
35 | Cc1cn(C2CCN(Cc3cccc(Oc4ccccn4)c3)CC2)c(=O)[nH]c1=O | 41 | > 50 | > 64 | –
